Laboratory results reported in article PMC2787200 (Organic letters, 2008).

Biological target: ERα (Homo sapiens, UniProt P03372)
Experiment: competitive radiometric binding assay with tritiated estradiol

Sequence of ERα (P03372 whole entry): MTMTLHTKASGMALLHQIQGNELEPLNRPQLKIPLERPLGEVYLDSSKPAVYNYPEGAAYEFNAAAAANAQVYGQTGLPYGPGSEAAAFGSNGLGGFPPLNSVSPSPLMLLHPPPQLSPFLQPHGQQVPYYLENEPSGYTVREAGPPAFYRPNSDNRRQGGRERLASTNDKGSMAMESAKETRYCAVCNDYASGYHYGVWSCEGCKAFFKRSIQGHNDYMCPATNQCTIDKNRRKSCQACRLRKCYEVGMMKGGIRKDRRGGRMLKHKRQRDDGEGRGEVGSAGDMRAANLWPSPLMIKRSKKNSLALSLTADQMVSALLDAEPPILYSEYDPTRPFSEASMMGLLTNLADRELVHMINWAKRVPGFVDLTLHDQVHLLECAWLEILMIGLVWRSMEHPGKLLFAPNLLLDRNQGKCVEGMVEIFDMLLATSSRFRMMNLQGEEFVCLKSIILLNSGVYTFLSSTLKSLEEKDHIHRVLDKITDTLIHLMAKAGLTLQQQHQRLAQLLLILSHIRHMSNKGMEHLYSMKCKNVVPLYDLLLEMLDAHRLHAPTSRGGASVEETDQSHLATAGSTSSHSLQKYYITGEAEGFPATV

“Cyclofenil-conjugated SNAPFL [compound 2]” showed a Ki of roughly 6 nM.
